Results reported in US5886026A, “Anti-angiogenic compositions and methods of use” (priority 1994, dated 1999).

How the values were obtained:
c-fos = c-fos expression in chondrocytes (Northern blot); assay type: cell-based, bovine; details: 10^-6 to 10^-8 M
Experimental: The fos and collagenase mRNA can be detected using the respective cDNA probes and analyzed by Northern blot analysis.
Human recombinant TNFα was dissolved in phosphate buffered saline (PBS) with 0.1% bovine serum albumin (BSA). Total RNA from bovine articular chondrocytes was isolated by the acidified guanidine isothiocyanate method and the levels of c-fos mRNA determined by Northern blot analysis. Denatured RNA samples (12 μg) were analyzed by gel electrophoresis in a denaturing 1% agarose gel, transferred to a nylon membrane (Bio-Rad), cross-linked with an ultraviolet cross-linker (Stratagene UV stratalinker 1800), and hybridized with ^32 P-labeled rat c-fos DNA. mRNA for tubulin and total RNA were used as controls. To determine tubulin mRNA, the blots described above were subsequently stripped of DNA and re-probed with ^32 P-labeled rat P-tubulin cDNA. This experimented was conducted three times and the data collated.

neutrophils [1] = assay: Neutrophil chemiluminescence in response to plasma opsonized CPPD or zymosan; assay type: cell-based, human
Experimental: CPPD (triclinic) crystals were prepared. The size distribution of the crystals was approximately 33% less than 10 μm, 58% between 10 and 20 μm and 9% greater than 20 μm. Crystals prepared under the above conditions are pyrogen free and crystals produced under sterile, pyrogen free conditions produced the same magnitude of neutrophil response as crystals prepared under normal, non-sterile laboratory conditions.
(§1) All experiments that studied neutrophil responses to crystals or zymosan in the presence of paclitaxel were performed using plasma opsonized CPPD or zymosan. Opsonization of crystals or zymosan was done with 50% heparinized plasma at a concentration of 75 mg of CPPD or 12 mg of zymosan per ml of 50% plasma. Crystals or zymosan were incubated with plasma for 30 min. at 37° C. and then washed in excess HBSS.
All chemiluminescence studies were performed at a cell concentration of 5,000,000 cells/ml in HBSS with CPPD (50 mg/ml). In all experiments 0.5 ml of cells was added to 25 mg of CPPD or 0.5 mg of zymosan in 1.5 ml capped Eppendorf tubes. 10 μl of luminol dissolved in 25% DMSO in HBSS was added to a final concentration of 1 μM and the samples were mixed to initiate neutrophil activation by the crystals or zymosan. Chemiluminescence was monitored using an LKB Luminometer (Model 1250.) at 37° C. with shaking immediately prior to measurements to resuspend the crystals or zymosan. Control tubes contained cells, drug and luminol (crystals absent).

neutrophils [2] = assay: Neutrophil degranulation, myeloperoxidase release; assay type: cell-based, human; details: 28 μM, CPPD
Experimental: as §1
One and a half milliliter Eppendorf tubes containing either 25 mg of CPPD or 1 mg of zymosan were preheated to 37° C. 0.5 ml of cells at 37° C. were added followed by vigorous shaking to initiate the reactions.
Myeloperoxidase (MPO) activity was measured by the increase in absorbance at 450 nm that accompanies the oxidation of dianisidine. 7.8 mg of dianisidine was dissolved in 100 ml of 0.1M citrate buffer, pH 5.5 at […] by sonication. To a 1 ml cuvette, 0.89 mL of the dianisidine solution was added, followed by 50 μl of 1% Triton×100, 10 μl of a 0.05% hydrogen peroxide in water solution and 50 μl of crystal-cell supernatant.

CC(=O)O[C@H]1C(=O)[C@@]2(C)[C@H]([C@H](OC(=O)c3ccccc3)[C@]3(O)C[C@H](OC(=O)[C@H](O)[C@@H](NC(=O)c4ccccc4)c4ccccc4)C(C)=C1C3(C)C)[C@]1(OC(C)=O)CO[C@@H]1C[C@@H]2O [paclitaxel]
total RNA and tubulin expression (c-fos): similarly unaffected | c-fos expression (c-fos; TNF stimulated): does not alter c-fos expression at any concentration | inhibition of chemiluminescence over time (neutrophils [1]; 28 μM, CPPD and zymosan): significant at all times from 3 to 16 minutes | effect on chemiluminescence of controls (neutrophils [1]; all concentrations, no stimulus): no effect on the chemiluminescence values of controls | neutrophil activation (neutrophils [1]; crystal or particulate induced): strong inhibitor | myeloperoxidase release (neutrophils [2]): significantly inhibited CPPD induced myeloperoxidase release at all times
